{"source": "paper PMC12661400", "about": "“Oral bioavailable ITRI-148 degrades androgen receptor variants and overcomes antiandrogen resistance in advanced prostate cancer” (Neoplasia (New York, N.Y.), 2025)", "key": {"AR-V7": {"target": "T1, AR-V7 (Homo sapiens, UniProt P10275)", "T1 construct": "endogenous in cells; host or cells: VCaP, CWR22Rv1", "T1 sequence (P10275 1-644 isoform P10275-3)": "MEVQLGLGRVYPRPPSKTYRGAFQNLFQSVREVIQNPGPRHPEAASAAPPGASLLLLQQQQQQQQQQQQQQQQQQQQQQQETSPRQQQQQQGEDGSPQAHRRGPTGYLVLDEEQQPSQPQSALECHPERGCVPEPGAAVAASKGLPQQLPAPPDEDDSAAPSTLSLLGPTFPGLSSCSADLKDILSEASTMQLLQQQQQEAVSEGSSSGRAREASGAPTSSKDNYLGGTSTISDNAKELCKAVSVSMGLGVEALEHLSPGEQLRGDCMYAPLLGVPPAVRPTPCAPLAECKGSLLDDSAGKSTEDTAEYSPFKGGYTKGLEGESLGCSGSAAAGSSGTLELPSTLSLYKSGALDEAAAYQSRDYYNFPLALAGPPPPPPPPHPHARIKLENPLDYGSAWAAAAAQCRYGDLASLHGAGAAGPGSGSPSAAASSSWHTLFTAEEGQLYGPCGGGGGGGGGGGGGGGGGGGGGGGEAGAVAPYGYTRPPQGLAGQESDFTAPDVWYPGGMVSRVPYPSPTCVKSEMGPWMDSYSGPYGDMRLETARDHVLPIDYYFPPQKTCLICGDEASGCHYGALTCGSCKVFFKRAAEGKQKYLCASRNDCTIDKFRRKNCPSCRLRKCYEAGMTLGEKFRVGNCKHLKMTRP", "experiment": "AR-V7 degradation by immunoblotting in CRPC cells", "assay_type": "cell-based", "method": "Cell lysis, Western blotting, and AR ubiquitination were performed as described in [17]. Primary antibodies: AR (Millipore 06-680), AR-V7 (RevMAb Biosciences 31-1109-00), PSA (ABclonal A4355), NKX3-1 (Cell Signaling Technology 92998), GAPDH (Cell Signaling Technology 2118) and β-Actin (Sigma-Aldrich A5441).\nFig. 1 ITRI-148 induces degradation of both AR and AR-V7 proteins in CRPC cells. […] (B) Expression of Flag-tagged AR-V7 in 293T cells following ITRI-148 treatment. Cells transiently expressing Flag-AR-V7 were pretreated with 50 μg/mL cycloheximide for 1 hour, then exposed to ITRI-148 at the indicated concentrations for 8 hours. AR-V7 expression was detected using an anti-Flag antibody. (C) Representative immunoblots showing AR protein levels in VCaP and CWR22Rv1 cells after 48 hours of ITRI-148 treatment. An N-terminal AR antibody was used to detect both full-length AR and LBD-truncated variants (AR-V(ΔLBD)) in CWR22Rv1 cells, while AR-V7 was detected using an AR-V7-specific antibody. DC₅₀ values were calculated from normalized band intensities, and Dₘₐₓ represents the maximal degradation achieved at 10 μM ITRI-148. (D) Immunofluorescence staining of AR after 24 or 48 hours of ITRI-148 treatment, detected using an N-terminal AR antibody. […] (F) Western blot analysis of ectopically expressed wild-type (WT) and mutant Myc-tagged AR in DU145 cells following 24 hours of treatment with 10 μM ITRI-148. Quantified AR levels are as indicated. TEXT PRINTED IN THE PICTURE: (C) ITRI-148: DC50 (μM) AR CWR22Rv1: 1.23 ± 1.86; DC50 (μM) AR VCaP: 0.05 ± 0.03; DC50 (μM) AR-V7 CWR22Rv1: 1.20 ± 0.92; DC50 (μM) AR-V7 VCaP: 0.02 ± 0.02; Dmax (%) AR CWR22Rv1: 65.02 ± 19.91; Dmax (%) AR VCaP: 80.49 ± 5.61; Dmax (%) AR-V7 CWR22Rv1: 72.10 ± 3.15; Dmax (%) AR-V7 VCaP: 91.36 ± 2.05"}, "[1]": {"experiment": "Pharmacokinetic analysis after oral dosing in mice", "assay_type": "in vivo, BALB/c mice", "method": "Six to eight-week-old male BALB/c (BALB/cAnNCrlBltw) mice (22-30 g) were purchased from BioLASCO Taiwan Co., Ilan, Taiwan. In vivo PK analysis of ITRI-148 was performed with 10 mg/kg for oral (PO, n = 3) dosing route. Blood samples from the mice were collected using Microvette® CB 300 EDTA blood collection tubes by a lancet at 0.167 h (IV only), 0.5, 1, 2, 4, 7 and 24 h time points. The plasma was then subjected to LC-MS analysis to quantitate the drug concentration using calibration curves that were established with drug standards prepared in mice plasma."}, "[2]": {"details": "VCaP, maximal degradation at 10 μM"}, "[3]": {"details": "male, BALB/c, mouse, plasma, po, 10 mg/kg"}}, "note": "Read-outs that look alike come from different tables or passages of the source.", "data": [{"compound": "O=C1CCC(N2C(=O)c3cccc(NCC(=O)N4CCC(N5CCC(C#Cc6ccc(C7CCN(C8=Nn9c(nnc9C(F)(F)F)CC8)CC7)cc6)CC5)CC4)c3C2=O)C(=O)N1", "note": "(stereo not shown) [ITRI-148]", "values": [{"measurement": "DC50", "setting": "AR-V7; CWR22Rv1, 48 hours, read-out: DC50 AR-V7", "value": "1200 ± 920", "unit": "nM"}, {"measurement": "Dmax at 10 µM", "setting": "AR-V7; CWR22Rv1, CWR22Rv1, maximal degradation at 10 μM", "value": "72.1 ± 3.15", "unit": "%"}, {"measurement": "DC50", "setting": "AR-V7; VCaP cells, read-out: half-maximal degradation concentration (DC50) for AR-V7", "value": "~20", "unit": "nM"}, {"measurement": "DC50", "setting": "AR-V7; VCaP, 48 hours, read-out: DC50 AR-V7", "value": "20 ± 20", "unit": "nM"}, {"measurement": "Dmax AR-V7", "setting": "AR-V7; [2]", "value": 91, "unit": "%"}, {"measurement": "Dmax at 10 µM", "setting": "AR-V7; [2]", "value": "91.4 ± 2.05", "unit": "%"}, {"measurement": "AUC/Dose", "setting": "[1]; PO, 10 mg/kg, 0-24 h per dosing", "value": 990.1, "unit": "h⋅kg⋅ng/mL/mg"}, {"measurement": "BA", "setting": "[1]; PO, 10 mg/kg, bioavailability", "value": "27.1 ± 0.5", "unit": "%"}, {"measurement": "PK (PO, 10 mg/kg) BA", "setting": "[1]; PO, bioavailability", "value": 27.1, "unit": "%"}, {"measurement": "AUC", "setting": "[1]; [3]", "value": 9900, "unit": "ng·h/mL"}, {"measurement": "Cmax", "setting": "[1]; [3]", "value": "733 ± 45", "unit": "ng/mL"}, {"measurement": "Tmax", "setting": "[1]; [3]", "value": 4, "unit": "h"}, {"measurement": "AUC(0-t)", "setting": "[1]; male, BALB/c, mouse, plasma, PO, 10 mg/kg, between 0 and 24 h", "value": 9900, "unit": "ng·h/mL"}]}]}
